Drawing on ChEMBL document CHEMBL4602694, “Suppression of Drug-Resistant Non-Small-Cell Lung Cancer with Inhibitors Targeting Minichromosomal Maintenance Protein” (J Med Chem, 2020), this text covers Activity and selectivity ratio for one compound.

Calls of active or inactive are those of the source. The calls are words filed in the database; no cut-off is given here. Some results are limits rather than exact numbers.

Data set [1] deals with NCI-H1975. As to the kind of experiment: Induction of apoptosis in human NCI-H1975 cells xenografted in athymic nude BALB/c mouse at 1 or 4 mg/kg, ip administered for 4 weeks by hematoxylin and eosin staining based assay. The data set is classed as functional, organism-based. A general note: Xenograft models place foreign cells or tissue in a host animal.
In data set [2] the test system is NCI-H1975. The experiment in a line: Antitumor activity against human NCI-H1975 cells xenografted in athymic nude BALB/c mouse assessed as delay in tumor growth at 1 or 4 mg/kg, ip administered for 4 weeks. The class given is functional, organism-based.
The nature of data set [3]: Toxicity in athymic nude BALB/c mouse xenografted with human NCI-H1975 cells assessed as effect on serum alanine transaminase at 1 or 4 mg/kg, ip administered for 4 weeks. The class given is organism-based. The settings on record: in vivo, 672 h.
A short description of data set [4]: Toxicity in athymic nude BALB/c mouse xenografted with human NCI-H1975 cells assessed as effect on serum blood urea nitrogen at 1 or 4 mg/kg, ip administered for 4 weeks. The data set is classed as organism-based. The settings on record: in vivo, 672 h.
Data set [5] deals with NCI-H1975. As to the kind of experiment: Cell cycle arrest in human NCI-H1975 cells assessed as accumulation in S phase at 140 nM incubated for 72 hrs by propidium iodide base flow cytometry analysis (reference value: 2 %). The class given is functional.
In data set [6] the test system is NCI-H1975. As to the kind of experiment: Cell cycle arrest in human NCI-H1975 cells assessed as BrdU positive cells at 140 nM incubated for 48 hrs by BrdUrd incorporation assay (reference value: 34 +/- 5.6 %). The class given is functional.
The subject of data set [7] is NCI-H1975. The experiment in a line: Cell cycle arrest in human NCI-H1975 cells assessed as replication fork at 140 nM incubated for 48 hrs by DAPI staining based immunofluorescence microscopy (reference value: 176.8 +/- 8.7). The data set is classed as functional.
Data set [8] concerns NCI-H1975. The experiment in a line: Cell cycle arrest in human NCI-H1975 cells assessed as accumulation in G1/S phase at 140 nM incubated for 48 hrs by DAPI staining based immunofluorescence microscopy. The data set is classed as functional.
Data set [9] addresses T1, DNA replication licensing factor MCM6 (Homo sapiens) (UniProt Q14566).
T1 sequence (whole entry): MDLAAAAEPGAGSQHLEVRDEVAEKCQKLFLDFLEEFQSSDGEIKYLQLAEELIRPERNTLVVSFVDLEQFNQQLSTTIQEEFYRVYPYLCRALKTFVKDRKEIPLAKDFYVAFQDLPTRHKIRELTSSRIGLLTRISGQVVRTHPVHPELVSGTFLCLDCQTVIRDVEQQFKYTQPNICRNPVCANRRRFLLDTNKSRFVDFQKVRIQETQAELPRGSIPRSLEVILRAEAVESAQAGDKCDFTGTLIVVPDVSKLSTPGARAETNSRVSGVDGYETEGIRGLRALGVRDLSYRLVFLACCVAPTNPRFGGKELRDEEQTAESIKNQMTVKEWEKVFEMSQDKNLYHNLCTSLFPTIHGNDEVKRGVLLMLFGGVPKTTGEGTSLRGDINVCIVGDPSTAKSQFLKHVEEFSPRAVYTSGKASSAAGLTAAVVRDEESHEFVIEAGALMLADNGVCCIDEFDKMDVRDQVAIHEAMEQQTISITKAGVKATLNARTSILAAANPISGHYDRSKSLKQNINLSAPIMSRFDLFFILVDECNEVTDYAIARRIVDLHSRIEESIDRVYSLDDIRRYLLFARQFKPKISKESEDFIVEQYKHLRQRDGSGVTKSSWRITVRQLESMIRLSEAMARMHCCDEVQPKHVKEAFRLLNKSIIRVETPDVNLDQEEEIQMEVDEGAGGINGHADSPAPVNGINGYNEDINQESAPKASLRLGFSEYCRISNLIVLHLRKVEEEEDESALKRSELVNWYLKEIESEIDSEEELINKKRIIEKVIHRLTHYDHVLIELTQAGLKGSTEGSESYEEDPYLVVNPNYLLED
The experiment in a line: Induction of ubiquitination of MCM6 in human NCI-H1975 cells incubated for 72 hrs by immunoblot analysis (reference value: 1). The class given is cell-based. On the technique in general: Immunoblotting shows a protein as a band on a membrane.

In data set [10] the target is T2, DNA replication licensing factor MCM4 (Homo sapiens) (UniProt P33991).
T2 sequence (whole entry): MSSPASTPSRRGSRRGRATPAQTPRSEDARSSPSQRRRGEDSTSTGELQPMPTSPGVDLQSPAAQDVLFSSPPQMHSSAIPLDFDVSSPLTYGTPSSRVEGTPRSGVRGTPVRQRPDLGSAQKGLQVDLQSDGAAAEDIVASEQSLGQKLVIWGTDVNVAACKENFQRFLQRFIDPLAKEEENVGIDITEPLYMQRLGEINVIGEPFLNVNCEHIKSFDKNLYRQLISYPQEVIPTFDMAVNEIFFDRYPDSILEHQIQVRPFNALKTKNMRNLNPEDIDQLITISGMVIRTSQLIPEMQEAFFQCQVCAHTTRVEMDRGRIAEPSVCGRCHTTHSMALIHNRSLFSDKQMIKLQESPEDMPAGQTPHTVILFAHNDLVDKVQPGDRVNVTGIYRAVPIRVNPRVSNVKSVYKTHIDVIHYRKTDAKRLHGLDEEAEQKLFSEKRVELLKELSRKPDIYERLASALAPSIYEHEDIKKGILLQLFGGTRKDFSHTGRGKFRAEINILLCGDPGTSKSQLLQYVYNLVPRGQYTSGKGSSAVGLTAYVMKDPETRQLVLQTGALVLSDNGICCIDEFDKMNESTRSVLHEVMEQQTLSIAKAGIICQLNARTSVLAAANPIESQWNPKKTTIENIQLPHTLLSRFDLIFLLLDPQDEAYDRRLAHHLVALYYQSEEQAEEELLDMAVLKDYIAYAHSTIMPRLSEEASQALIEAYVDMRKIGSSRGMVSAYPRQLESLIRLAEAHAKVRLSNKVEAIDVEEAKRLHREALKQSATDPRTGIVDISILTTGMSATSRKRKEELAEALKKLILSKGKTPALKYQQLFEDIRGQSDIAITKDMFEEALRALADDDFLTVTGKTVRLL
The experiment in a line: Induction of ubiquitination of MCM4 in human NCI-H1975 cells incubated for 72 hrs by immunoblot analysis (reference value: 1). The data set is classed as cell-based.

The target of data set [11] is DNA replication licensing factor MCM2 (Homo sapiens) (UniProt P49736). The experiment in a line: Binding affinity to MCM2 in human NCI-H1975 cells assessed as reduction in MCM2 level measured up to 9 hrs by immunoblot analysis. The data set is classed as cell-based.
Sequence of DNA replication licensing factor MCM2 (Homo sapiens) (P49736 whole entry): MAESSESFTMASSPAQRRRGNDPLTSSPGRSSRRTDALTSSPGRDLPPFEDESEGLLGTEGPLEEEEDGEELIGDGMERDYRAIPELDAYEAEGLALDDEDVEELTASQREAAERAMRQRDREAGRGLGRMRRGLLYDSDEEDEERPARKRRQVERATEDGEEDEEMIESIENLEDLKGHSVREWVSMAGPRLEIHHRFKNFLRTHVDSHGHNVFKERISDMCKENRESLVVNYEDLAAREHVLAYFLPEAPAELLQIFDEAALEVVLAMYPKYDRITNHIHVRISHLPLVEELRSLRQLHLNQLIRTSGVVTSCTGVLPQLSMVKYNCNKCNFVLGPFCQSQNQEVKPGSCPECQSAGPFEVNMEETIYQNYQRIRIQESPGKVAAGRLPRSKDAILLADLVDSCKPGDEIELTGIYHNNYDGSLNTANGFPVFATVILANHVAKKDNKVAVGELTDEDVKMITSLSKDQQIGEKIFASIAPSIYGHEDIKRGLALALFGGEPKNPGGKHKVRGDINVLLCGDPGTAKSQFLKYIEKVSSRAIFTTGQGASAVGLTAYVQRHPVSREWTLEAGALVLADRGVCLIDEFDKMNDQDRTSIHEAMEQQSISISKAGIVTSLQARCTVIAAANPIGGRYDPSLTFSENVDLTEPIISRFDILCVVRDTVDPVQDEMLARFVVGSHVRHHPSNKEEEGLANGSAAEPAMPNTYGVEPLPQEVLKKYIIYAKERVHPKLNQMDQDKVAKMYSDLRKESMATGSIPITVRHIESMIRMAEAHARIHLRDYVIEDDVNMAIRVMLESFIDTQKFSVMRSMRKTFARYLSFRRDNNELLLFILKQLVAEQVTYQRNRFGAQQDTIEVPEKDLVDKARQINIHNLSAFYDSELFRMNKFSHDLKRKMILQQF
Data set [12] has the same target. The experiment in a line: Induction of ubiquitination of MCM2 in human NCI-H1975 cells incubated for 24 hrs by magnetic beads technique based immunoblot analysis. The data set is classed as cell-based.
Data set [13] has the same target. The experiment in a line: Induction of ubiquitination of FLAG-tagged MCM2 in human NCI-H1975 cells incubated for 24 hrs by magnetic beads technique based immunoblot analysis. The data set is classed as cell-based.
The test system of data set [14] is DNA replication licensing factor MCM2 (Homo sapiens), P49736 [Q341A]. The experiment in a line: Induction of ubiquitination of FLAG-tagged MCM2 Q341A mutant (unknown origin) expressed in human NCI-H1975 cells incubated for 24 hrs by magnetic beads technique based immunoblot analysis. The data set is classed as cell-based.
Sequence of DNA replication licensing factor MCM2 (Homo sapiens), P49736 [Q341A] (P49736 whole entry Q341A): as the sequence (P49736 whole entry) above, with Q341A counted along it
A short description of data set [15]: Selectivity index, ratio of IC50 for human bronchial epithelial cells to IC50 for human NCI-H1975 cells. The settings on record: human bronchial epithelial cells versus NCI-H1975 cells, read-out: Ratio IC50. The class given is toxicity.

On to `Cc1oc2c(c1C(=O)NCCCn1ccnc1)C(=O)c1ccccc1C2=O`, for which the outcome (in the data set with NCI-H1975 [1]; in the data set with NCI-H1975 [2]; in the data set on NCI-H1975 [8]; in data set [11]; in data set [12]; in [13]) was Active. Also, the Activity result is “Non-Toxic” in data set [3]; “Non-Toxic” in [4]; 18% in the data set on NCI-H1975 [5]; 16% in the data set on NCI-H1975 [6]; 48.8 in the data set on NCI-H1975 [7]; 0.2 in [9]. Also, the Activity in data set [10] is 0.7. For the same compound, in data set [14], the result was inactive. For the same compound, the selectivity ratio in data set [15] is > 10.
